Test results: patent EP4592276A1, “NOVEL ACY[…] OF PSILOCIN AND RELATED 4-HYDROXYT[…] BY AN EFFICIENT […] APPROACH” (Universität Heidelberg, priority 2024, dated 2025)
Where a name gives a salt, the structure may show the parent alone. Marks after values point to notes of the source that are not given here.

Key:
[1] = Passive membrane permeation assay (PAMPA); assay type: in vitro ADME; conditions: pre-coated PAMPA plate, PBS pH 7.4, 200 µM, 25 °C; for R (mass retention) / Pe: 5 h; for Pe / Papp at 5 h, 200 µM: mean ± standard deviation; for Papp at 5 h, 200 µM: read-out: Pe
Protocol: The passive membrane permeability was evaluated with a pre-coated PAMPA plate system (BD Gentest, BD Bioscience, Germany) following the guidelines of the manufacturer and a previous literature report (cf. Kühl et al. Eur. J. Med. Chem. 2022, 240, 114585). Phosphate-buffered saline (PBS) pH 7.4 (Sigma-Aldrich, Germany) was used for all experiments. Analyte concentrations were determined on a Jasco HPLC system equipped with a UV detector and an RP-18 column (Chromolith® Performance RP-18e, 100x4.6 mm) using one of the gradients listed in Table 2. For all samples, the injection volume was 40 µl. Table 2: HPLC settings for the analysis of PAMPA samples.
Prior to performing the assay, the PAMPA plate was warmed to room temperature for 0.5 h. In the donor plate, 300 µL of the 200 µM compound solutions in PBS (4 % dimethyl sulfoxide (DMSO)) were dispensed in triplicate, and in the acceptor plate, 200 µL of PBS buffer were added to all wells. The plates were combined, and the system was incubated at 25 °C for 5 h. Upon completion of the incubation, donor and acceptor plate were separated. The wells were homogeneously mixed with a pipette, and a 100 µl sample of each donor and acceptor well was transferred to 96 well U-bottom polypropylene plates (Greiner Bio-One, Germany) for quantitative HPLC analysis.

HuH-7 cells = assay: Cell viability in HuH-7 cells (CellTiter-Blue); assay type: cell-based, human; conditions: for Cell Viability in HuH7 at 50 µM, 2 h Incubation / Cell Viability in HuH7 at 50 µM, 24 h Incubation: mean of triplicates ± standard deviation; for toxicity for HuH-7 cells: result in words
Protocol: In order to assess cytotoxic effects of compounds in cell culture, HuH-7 cells were incubated in presence of these compounds in a 96-well plate for 2 h or 24 h. In order to generate a calibration curve for cell viability, a serial dilution (1:2 dilution series) of cells was seeded into control wells. Measurement of cell viability is based on the assay development using CellTiter-Blue reagent (Resazurin, blue color), which is reduced to resofurin (pink color) by viable cells.
Prior to performing the assay, a 96-well assay plate (F-bottom, transparent, Greiner) containing HuH-7 cells (20,000 cells per well) in culture medium was prepared. […] CellTiter-Blue reagent (1-2 mL) was diluted with cell culture medium (10 mL) in a Falcon tube and prewarmed to 37 °C. The 96-well plate was removed from the incubator, the medium aspirated using a vacuum pump and 100 µL of diluted CellTiter-Blue reagent was added to each well.

[2] = Drug release kinetics (prodrug cleavage) in human blood plasma; assay type: in vitro ADME; conditions: for half-life: 10 % human plasma in PBS, 50 µM; for half-life / half-life at 50 µM: 37 °C; for half-life at 50 µM / t1/2 at 37 °C and [prodrug]0 = 50 µM, 100 % Human Plasma: 100 % human plasma
Protocol: Pooled human blood plasma (Biowest, France) and sterile Dulbecco's phosphate buffered saline (PBS) pH 7.3 (Sigma-Aldrich, Germany) were used for all experiments. The blood plasma was aliquoted upon receipt and stored at -20 °C. 10 % solutions were prepared by thawing a plasma aliquot at 2-8 °C, distributing it into plastic vials and diluting with the appropriate volume of sterile PBS. The 10 % and 100 % plasma aliquots were stored at -20 °C and thawed at 2-8 °C directly before the assay was performed. In a thermoblock, a plasma aliquot and 10 µl of a 5 mM prodrug solution in DMSO were prewarmed to 37 °C for 10 min in separate plastic vials. Then, 1000 µl of the prewarmed plasma sample was added to the prodrug solution, and 9×100 µl samples were withdrawn at appropriate time intervals. The enzymatic reaction was quenched by immediate mixing of the samples (100 µl) with acetonitrile (200 µl). Blank samples were prepared by mixing 10 % or 100 % plasma (100 µl) with acetonitrile (200 µl), respectively. Samples of the initial reaction mixture were prepared by adding the 5 mM prodrug solution (1 µl) to a blank sample.
Centrifugation (13,000 rpm, 3 min) of the quenched samples afforded clear supernatants which were transferred to 96 well U-bottom polypropylene plates (Greiner Bio-One, Germany). Analyte quantifications were performed on a Jasco HPLC system equipped with a UV detector and an RP-18 column (Chromolith® Performance RP-18e, 100x4.6 mm) using one of the gradients listed in Table 3. Prodrug degradation was monitored using undiluted supernatant and a 10 min chromatographic method. […] For all samples, the injection volume was 40 µL and the flow was set to 1.0 mL/min. […] Table 3: HPLC settings for quantitative analysis of plasma samples.

[3] = Prodrug stability in human whole saliva; assay type: in vitro ADME; conditions: mean of fresh samples of three individuals, classified into three groups; for half-life at 50 µM: 37 °C
Protocol: Freshly collected saliva and 5 mM stock solutions of the analytes in DMSO were prewarmed to 37 °C for 10 min. Then, 700 µl prewarmed saliva was added to 7 µl of the prodrug stock, and the mixture was incubated at 37 °C. Samples (100 µL) were taken at selected time points (0, 10, 20, 40, 60 min; 2 h or 24 h) and immediately quenched with acetonitrile (200 µl). Blank samples were prepared by mixing saliva (100 µl) with acetonitrile (200 µl). Centrifugation (3,000 rpm, 5 min) of the quenched samples afforded clear supernatants which were transferred to 96 well U-bottom polypropylene plates (Greiner Bio-One, Germany). Analyte quantifications were performed on a Jasco HPLC system equipped with a UV detector and an RP-18 column (Chromolith® Performance RP-18e, 100x4.6 mm) using the gradients listed in Table 4. Samples that gave rise to asymmetric peaks inadequate for quantification were diluted (1:1) with H2O (+0.1 % TFA). The injection volume was 40 µl and the flow was set to 1.0 mL/min. UV detection was performed at 286 nm. […] Table 4: HPLC settings for quantitative analysis of saliva samples.

[4] = 100 % pooled human blood plasma

| SMILES | R (mass retention) [1] | Papp at 5 h, 200 µM [1] | Cell Viability in HuH7 at 50 µM, 2 h Incubation (HuH-7 cells) | Cell Viability in HuH7 at 50 µM, 24 h Incubation (HuH-7 cells) | further results |
| --- | --- | --- | --- | --- | --- |
| CCN(C)CCc1c[nH]c2cccc(OC(=O)C(C)C)c12 [Compound 8d, 4-iso-Butyryloxy-N-ethyl-N-methyltryptammonium fumarate] | 4% | 9.5 ± 0.7 ×10⁻⁶ cm/s | 91.4 ± 3.7% | 82.1 ± 2.3% | Pe [1]: at least 8 10^-6 cm/s; half-life [2]: 0.44 ± 0.03 min; half-life at 50 µM [3]: 15 to 60 min |
| CCCC(=O)OCOc1cccc2[nH]cc(CCN(C)C)c12 [Compound 15b, 4-n-Butanoyloxymethyloxy-N,N-dimethyltryptammonium fumarate] | 7^b % |  | 90.0 ± 5.2% | 79.3 ± 3.5% | Pe [1]: 8.1 ± 0.8^b 10^-6 cm/s; half-life at 50 µM [3]: < 15 min |
| CCN(C)CCc1c[nH]c2cccc(OC(=O)C(C)(C)C)c12 [Compound 8f, 4-Pivaloyloxy-N-ethyl-N-methyltryptammonium fumarate] | -2% | 10.7 ± 0.7 ×10⁻⁶ cm/s | 80.4 ± 2.1% | 79.4 ± 2.1% | half-life at 50 µM [2]: > 1 h; half-life at 50 µM [3]: > 60 min; t1/2 at 37 °C and [prodrug]0 = 50 µM, Human Saliva [3]: > 60 min |
| NS(=O)(=O)c1cc(C(=O)O)c(NCc2ccco2)cc1Cl [Furosemide, reference compound] |  |  | 121.9 ± 13.8% | 90.7 ± 1.1% | Pe [1]: -0.4 ± 0.3^c 10^-6 cm/s |
| CCN(C)CCc1c[nH]c2cccc(OC(=O)CC(C)C)c12 [Compound 8g, 4-(3-Methylbutanoyl)oxy-N-ethyl-N-methyltryptammonium fumarate] | 2% | 10.6 ± 0.8 ×10⁻⁶ cm/s | 81.7 ± 8.6% | 79.8 ± 4.6% | half-life [2]: > 8 min |
| CCN(C)CCc1c[nH]c2cccc(OC(=O)c3ccccc3)c12 [Compound 8i, 4-Benzoyloxy-N-ethyl-N-methyltryptammonium fumarate] | 6% | 9.4 ± 0.8 ×10⁻⁶ cm/s | 95.0 ± 3.8% | 80.1 ± 1.7% | half-life [2]: 1.5 ± 0.5 min; half-life at 50 µM [3]: 15 to 60 min |
| CN(C)CCCN1c2ccccc2CCc2ccccc21 [Imipramine HCl, reference compound] |  |  | 91.1 ± 3.7% | 24.4 ± 5.3% |  |
| CCN(C)CCc1c[nH]c2cccc(OC(=O)CC(C)(C)C)c12 [Compound 8h, 4-(tert-Butylacetyl)oxy-N-ethyl-N-methyltryptammonium fumarate] | 1% | 11.2 ± 0.8 ×10⁻⁶ cm/s | 28.7 ± 1.1% | 42.3 ± 25.9% | half-life [2]: > 8 min |
| CCCC(=O)OCOc1cccc2[nH]cc(CCN(C)CC)c12 [Compound 15d, 4-n-Butanoyloxymethyloxy-N-ethyl-N-methyltryptammonium fumarate] | 6% |  | 85.4 ± 2.7% | 80.6 ± 3.3% | Pe [1]: 8.0 ± 0.3 10^-6 cm/s; half-life at 50 µM [3]: < 15 min |
| CN(C)CCc1c[nH]c2cccc(O)c12 [Psilocin 1, 4-Hydroxy-N,N-dimethyltryptamine, reference compound] |  |  | 93.7 ± 6.3% | 72.5 ± 8.3% |  |
| CCN(C)CCc1c[nH]c2cccc(OC(=O)C3CC3)c12.CCN(C)CCc1c[nH]c2cccc(OC(=O)C3CC3)c12.O=C(O)/C=C/C(=O)O [Compound 8e, 4-(Cyclopropanecarbonyloxy)-N-ethyl-N-methyltryptammonium fumarate] |  |  | 101.2 ± 3.1% | 81.7 ± 2.0% | t1/2 at 37 °C and [prodrug]0 = 50 µM, 100 % Human Plasma [2]: 0.84 ± 0.11^c min; t1/2 at 37 °C and [prodrug]0 = 50 µM, Human Saliva [3]: > 60 min |
| CCN(C)CCc1c[nH]c2cccc(O)c12 [4-OH-MET fumarate 17, 4-Hydroxy-N-ethyl-N-methyltryptammonium fumarate, reference compound] | 29% | 11 ± 1 ×10⁻⁶ cm/s | 91.0 ± 1.7% | 82.9 ± 1.3% |  |
| CCN(C)CCc1c[nH]c2cccc(OC(=O)c3ccco3)c12.CCN(C)CCc1c[nH]c2cccc(OC(=O)c3ccco3)c12.O=C(O)/C=C/C(=O)O [Compound 8j, 4-(2-Furoyl)oxy-N-ethyl-N-methyltryptammonium fumarate] |  |  | 89.6 ± 3.4% | 78.0 ± 2.0% | t1/2 at 37 °C and [prodrug]0 = 50 µM, 100 % Human Plasma [2]: 0.14 ± 0.01 min; t1/2 at 37 °C and [prodrug]0 = 50 µM, Human Saliva [3]: 15 to 60 min |
| CN(C)CCc1cn(C(=O)OCc2ccccc2)c2cccc(O)c12 [Compound 10, 1-Benzyloxycarbonyl-4-hydroxy-N,N-dimethyltryptamine] |  |  | 0.1 ± 0.2% | -1.3 ± 0.1% | toxicity for HuH-7 cells (HuH-7 cells): extremely toxic; half-life at 50 µM [2, 4]: > 95 h |
| CC(=O)Oc1ccccc1C(=O)O [Acetylsalicylic acid, reference compound] |  |  | 92.9 ± 3.3% | 83.8 ± 3.8% | half-life at 50 µM ([3]; both sexes): > 60 min |
| O=C1NC(=O)C(c2ccccc2)(c2ccccc2)N1 [Phenytoin, reference compound] | 57% | 7.5 ± 1 ×10⁻⁶ cm/s | 122.9 ± 1.7% | 84.2 ± 2.7% |  |
| CCN(C)CCc1cn(C(=O)OCc2ccccc2)c2cccc(O)c12 [Compound 11, 1-Benzyloxycarbonyl-4-hydroxy-N-ethyl-N-methyltryptamine] |  |  | 0.1 ± 0.2% | -2.1 ± 0.1% | toxicity for HuH-7 cells (HuH-7 cells): extremely toxic; half-life at 50 µM [2, 4]: > 95 h |
| Cn1c(=O)c2c(ncn2C)n(C)c1=O [Caffeine, reference compound] | 1% | 12.8 ± 0.9 ×10⁻⁶ cm/s |  |  |  |
